Key:
[1] = Permeability, PAMPA assay; type: in vitro ADME
PPARδ = biological target: T1, PPARδ (Homo sapiens, UniProt Q03181); experiment: PPARδ transcription 2-hybrid assay; type: cell-based; settings: up to 100 μM
T1 sequence (Q03181 211-439 limits assumed): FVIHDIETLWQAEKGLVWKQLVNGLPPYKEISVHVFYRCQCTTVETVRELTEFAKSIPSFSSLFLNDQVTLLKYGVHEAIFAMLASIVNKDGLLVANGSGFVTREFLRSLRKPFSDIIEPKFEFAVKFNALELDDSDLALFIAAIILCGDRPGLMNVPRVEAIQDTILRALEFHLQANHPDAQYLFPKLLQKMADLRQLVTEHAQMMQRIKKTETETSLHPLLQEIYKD

VDR = biological target: T2, VDR (Homo sapiens, UniProt P11473); experiment: VDR transcription assay; type: cell-based; settings: compared with GW0742
T2 sequence (P11473 1-427): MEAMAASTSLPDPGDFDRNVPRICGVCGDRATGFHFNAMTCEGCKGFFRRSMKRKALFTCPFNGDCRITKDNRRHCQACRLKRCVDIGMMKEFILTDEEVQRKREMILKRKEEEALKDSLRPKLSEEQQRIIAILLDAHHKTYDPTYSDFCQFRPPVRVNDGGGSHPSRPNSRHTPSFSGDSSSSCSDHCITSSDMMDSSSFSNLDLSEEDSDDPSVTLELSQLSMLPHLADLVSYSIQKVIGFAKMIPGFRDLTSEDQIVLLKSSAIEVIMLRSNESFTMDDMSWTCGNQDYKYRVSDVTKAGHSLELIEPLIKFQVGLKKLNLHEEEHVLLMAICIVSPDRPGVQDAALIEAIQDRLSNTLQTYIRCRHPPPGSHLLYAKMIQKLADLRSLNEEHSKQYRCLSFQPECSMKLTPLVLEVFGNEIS

Toxicity, Cell-TiterGlo = type: cell-based; settings: n.o.= not observed

Row | Papp [1] [×10⁻⁶ cm/s] | Compound | other results
1 | 468 | COC(=O)c1ccccc1OCc1oc(-c2ccccc2OC)nc1C [4a] | –
2 | 513 | COC(=O)c1ccccc1OCc1oc(-c2cccc(OC)c2)nc1C [4b] | –
3 | 380 | COC(=O)c1cccc(OCc2oc(-c3ccccc3OC)nc2C)c1 [5a] | activation of PPARδ-mediated transcription (in words) (PPARδ): inability to activate; increased potency in respect to GW0742 (VDR antagonism) (VDR): 10 fold
4 | 427 | COC(=O)c1cccc(OCc2oc(-c3cccc(OC)c3)nc2C)c1 [5b] | –
5 | 447 | COC(=O)c1ccc(OCc2oc(-c3ccccc3OC)nc2C)cc1 [6a] | –
6 | 372 | COC(=O)c1ccc(OCc2oc(-c3cccc(OC)c3)nc2C)cc1 [6b] | –
7 | 275 | COC(=O)Cc1ccc(OCc2oc(-c3ccccc3OC)nc2C)cc1 [7a] | –
8 | 479 | COC(=O)Cc1ccc(OCc2oc(-c3cccc(OC)c3)nc2C)cc1 [7b] | activation of PPARδ-mediated transcription (in words) (PPARδ): without activating
9 | 457 | COC(=O)CCc1ccc(OCc2oc(-c3ccccc3OC)nc2C)cc1 [8a] | –
10 | 457 | COC(=O)CCc1ccc(OCc2oc(-c3cccc(OC)c3)nc2C)cc1 [8b] | –
11 | 234 | COc1ccccc1-c1nc(C)c(COc2ccccc2C(=O)O)o1 [9a] | –
12 | 234 | COc1cccc(-c2nc(C)c(COc3ccccc3C(=O)O)o2)c1 [9b] | –
13 | 263 | COc1ccccc1-c1nc(C)c(COc2cccc(C(=O)O)c2)o1 [10a] | % Toxicity at 100 μM (Toxicity, Cell-TiterGlo): n.o.
14 | 132 | COc1cccc(-c2nc(C)c(COc3cccc(C(=O)O)c3)o2)c1 [10b] | –
15 | 214 | COc1ccccc1-c1nc(C)c(COc2ccc(C(=O)O)cc2)o1 [11a] | % Toxicity at 100 μM (Toxicity, Cell-TiterGlo): n.o.
16 | 170 | COc1cccc(-c2nc(C)c(COc3ccc(C(=O)O)cc3)o2)c1 [11b] | –
17 | 191 | COc1ccccc1-c1nc(C)c(COc2ccc(CC(=O)O)cc2)o1 [12a] | % Toxicity at 100 μM (Toxicity, Cell-TiterGlo): n.o.
18 | 132 | COc1cccc(-c2nc(C)c(COc3ccc(CC(=O)O)cc3)o2)c1 [12b] | –
19 | 257 | COc1ccccc1-c1nc(C)c(COc2ccc(CCC(=O)O)cc2)o1 [13a] | –
20 | 120 | COc1cccc(-c2nc(C)c(COc3ccc(CCC(=O)O)cc3)o2)c1 [13b] | –
